Assay results: paper PMC4557792 (ACS chemical biology, 2013)

Assays:
VMAT = settings: cited from earlier work; for IC50: read-out: IC50, inhibiting [3H]DA uptake, rat brain vesicles
VMAT2 [1] = molecular target: VMAT2 (Rattus norvegicus, UniProt Q01827); assay type: cell-based; settings: for inhibitory effect on VMAT2 transport (FFN206 uptake) in screen: tested compound 10 µM, FFN206 1 µM, 30 min preincubation, 60 min uptake
VMAT2-HEK cells = test: Fluorescence microscopy of FFN206 accumulation in VMAT2-HEK cells; assay type: cell-based, human
VMAT2 [2] = settings: endogenous substrate; cited from earlier work

Chain of VMAT2 (Rattus norvegicus, UniProt Q01827) (Q01827 whole entry): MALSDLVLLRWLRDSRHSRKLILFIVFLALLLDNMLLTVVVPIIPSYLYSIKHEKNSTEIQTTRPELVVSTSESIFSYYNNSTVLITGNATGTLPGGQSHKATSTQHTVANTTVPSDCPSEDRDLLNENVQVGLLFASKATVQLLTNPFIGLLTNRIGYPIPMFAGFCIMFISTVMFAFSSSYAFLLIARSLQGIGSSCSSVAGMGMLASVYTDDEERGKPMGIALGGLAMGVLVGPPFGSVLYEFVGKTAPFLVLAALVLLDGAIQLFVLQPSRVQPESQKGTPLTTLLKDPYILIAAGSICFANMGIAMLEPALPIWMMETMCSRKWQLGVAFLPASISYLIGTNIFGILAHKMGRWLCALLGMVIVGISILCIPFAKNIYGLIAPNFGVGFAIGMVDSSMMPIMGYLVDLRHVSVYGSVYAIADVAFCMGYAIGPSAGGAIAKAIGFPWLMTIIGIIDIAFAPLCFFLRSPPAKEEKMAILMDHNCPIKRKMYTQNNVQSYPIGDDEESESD

Compound	inhibitory effect on VMAT2 transport (FFN206 uptake) in screen (VMAT2 [1])	activity in inhibiting vesicular uptake of [3H]DA by VMAT (VMAT)	other results
C[C@H](N)Cc1ccccc1 [S(+)-amphetamine]			IC50 (VMAT): 3.27 µM
CC(C)(N)Cc1ccccc1 [phentermine]	no or weak inhibitory effects	inactive	
CCN(CC)CCCC(C)Nc1ccnc2cc(Cl)ccc12 (stereo not shown) [Chloroquine, chloroquine]	reduces VMAT2-dependent uptake		effect on punctate FFN206 fluorescence signal (VMAT2-HEK cells; 100 µM, within 3 minutes of treatment, cells pre-loaded with FFN206 5 µM): completely abolished
COC(=O)[C@H]1[C@@H](OC(=O)c2ccccc2)C[C@@H]2CC[C@H]1N2C [cocaine]	no or weak inhibitory effects	inactive	inhibition of FFN206 uptake (negative control) (VMAT2 [1]; 96-well fluorometric assay, VMAT2-HEK cells): no detectable inhibition
COc1cc2c(cc1OC)C1CC(=O)C(CC(C)C)CN1CC2 (stereo not shown) [TBZ, tetrabenazine]			FFN206 uptake in VMAT2-HEK cells pre-treated with inhibitor (VMAT2-HEK cells; inhibitor 2 µM, 1 hr preincubation then coincubation, FFN206 5 µM, 2 hr): Negligible uptake of FFN206
NCCc1ccc(O)c(O)c1 [dopamine]			IC50 (VMAT2 [2]): 920 ± 50 nM; Km (VMAT2 [2]): 820 to 950 nM
c1ccc(CN2CCNCC2)cc1 [benzylpiperazine]	no or weak inhibitory effects	inactive	
CCN(CC)C(C)C(=O)c1ccccc1 (stereo not shown) [diethylpropion]	no or weak inhibitory effects	inactive	
C[C@@H](N)Cc1ccccc1 [R(−)-amphetamine]			IC50 (VMAT): 29 µM
